Like-named read-outs stand apart in the source and are kept apart here.

What all share (type): cell-based
The test system of experiment [1] is L. donovani HU3 strain in mouse peritoneal macrophages. As to the kind of experiment: Assay for inhibition of parasitemia of Leishmania donovani in mouse macrophages (SYBR Green nuclei count, high-content imaging). The note with it: read-out: L. donovani in Mouse Macrophages EC50. The text has this:
Assay for Inhibition of Parasitemia of Leishmania donovani in Mouse Macrophages
The assay measures the increase in the parasite number in the assayed plate well using a DNA intercalating dye, SYBR Green I® dye (INVITROGEN) to stain Leishmania cell nuclei. L. donovani HU3 strain is propagated by infecting BALB/c mice through tail vein injection with 10^7 Leishmania parasites. Infected mice are allowed to develop infection during 9-11 weeks post-infection. During this time, the parasites accumulate in the infected mouse spleens to large numbers, and the infected mice serve as the source of parasites for the in vitro measurement of compound efficacies. To assay a compound for anti-leishmanial activity, peritoneal macrophages isolated from non-infected BALB/c mice are seeded into 384-well plates at density 2×10^4 macrophages per well in […] of medium (RPM11640, 10% fetal serum albumin, 10 mM HEPES, 1 mM sodium pyruvate, 1% Pen/Strep). Subsequently, the seeded plates are placed into an incubator set to maintain 37° C. temperature and atmosphere with 5% CO2.
The next day, Leishmania parasites are isolated from the spleens of mice infected for 9-11 weeks and 4×10^5 isolated parasites in […] of the above media are added to each plate well. Plates are then returned into incubators and infection is allowed to proceed for 24 hours. After the infection of macrophages is completed, […] of compounds of the invention in the above medium, which also contains 5% DMSO, are added to plate wells containing infected macrophages. At the same time control compounds (miltefosine and amphotericin B) and DMSO are added to plates to serve as the positive and negative controls, respectively. After the compound addition, the plates are returned into incubator and cells infected with parasites are cultured for 5 days. At the end of cultivation, […] of 8% paraformaldehyde is added to plate wells and incubated for 15 min at room temperature. Following the incubation, the paraformaldehyde from plate wells is aspirated, and […] of PBS containing 0.2% Triton X-100 is added to wells. After 15 min incubation, the solution is aspirated from wells again, and replaced with Sybr® Green Dye solution in PBS (1:125,000 dilution). Infected cells are imaged with Evotec Opera high-content microscope, and the number of parasites in well is determined by counting parasite nuclei visualized by staining with Sybr® Green dye.

Experiment [2] deals with Leishmania donovani axenic amastigote. As to the kind of experiment: In vitro assay for growth inhibition of Leishmania donovani axenic amastigote (Cell TiterGlo luminescence). The note with it: L. donovani axenic amastigotes in vitro, read-out: L. donovani amastigotes EC50. In a few lines:
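Axenic L. donovani amastigotes (9600/well) grown at 37 °C, 5% CO2 in supplemented RPMI 1640, pH 5.5, with compound added from DMSO. After two days, viability read by CellTiter-Glo luminescence against DMSO and control-compound wells.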
On the technique in general: Cellular ATP, detected with luciferase, serves as a proxy for viable cell number.

For experiment [3], the system named is Trypanosoma cruzi amastigotes cultured in 3T3 fibroblast cells. As to the kind of experiment: Assay for growth inhibition of kinetoplastid parasite Trypanosoma cruzi (beta-galactosidase Tulahuen strain, CPRG readout). The conditions noted are these: T. cruzi amastigotes in 3T3 fibroblast cells, read-out: Buckner infectious T. cruzi EC50. The method in brief:
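3T3 fibroblasts (1,000 cells/well) plated overnight, treated with compound in DMSO, then infected with 10,000 Lac-Z-expressing Tulahuen trypomastigotes. After 6 days, 0.6 mM CPRG with 0.6% NP-40 added for 2 h at room temperature; absorbance gives relative intracellular amastigote numbers. Benznidazole and nifurtimox serve as positive controls.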

Experiment [4] has as its system Trypanosoma brucei brucei (Lister 427) strain. As to the kind of experiment: Assay for growth inhibition against Trypanosoma brucei brucei (Cell TiterGlo ATP luminescence). The note with it: T. brucei brucei (Lister 427), read-out: T. Brucei (HAT) EC50. The method in brief:
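T. b. brucei Lister 427 grown in HMI-9 with 10% FBS and 10% serum plus, seeded at 10,000 parasites/mL with 10-point threefold compound dilutions in duplicate, 37 °C for 2 days. Viability read as ATP luminescence 30 min after Cell TiterGlo; IC50 versus untreated controls.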

The mark [5] stands for this setting: L. donovani in mouse peritoneal macrophages.
The mark [6] stands for this setting: Leishmania donovani, Peritoneal macrophage, L. donovani in mouse peritoneal macrophages.

With `O=C(Nc1ccc(F)c(-n2cc3cc(-c4ccccn4)cnc3n2)c1)[C@H]1C[C@@H]1F` (single isomer, unassigned) [Compound 269, (1 S,2R)-2-fluoro-N-(4-fluoro-3-(5-(pyridin-2-yl)-2H-pyrazolo[3,4-b]pyridin-2-yl)phenyl)cyclopropane-1-carboxamide or (1R,2S)-2-fluoro-N-(4-fluoro-3-(5-(pyridin-2-yl)-2H-pyrazolo[3,4-b]pyridin-2-yl)phenyl)cyclopropane-1-carboxamide], the EC50 (in general, the midpoint of the concentration-response curve) was determined as 32 nM in experiment [1] (setting [5]); 19 nM in experiment [2] (Leishmania donovani); 9 nM in experiment [3] (Trypanosoma cruzi, Fibroblast); 20 nM in experiment [4].

As for `O=C(Nc1ccnc(-n2cc3cc(-c4ccccn4)cnc3n2)c1)N1CC(F)(F)C1` [Compound 281, 3,3-difluoro-N-(2-(5-(pyridin-2-yl)-2H-pyrazolo[3,4-b]pyridin-2-yl)pyridin-4-yl)azetidine-1-carboxamide], the EC50 was found to be 26 nM in experiment [1] (setting [6]); 9 nM in experiment [2] (Leishmania donovani); 15 nM in experiment [3] (Trypanosoma cruzi, Fibroblast); 14 nM in experiment [4] (Trypanosoma brucei).

On to `O=C(Nc1ccc(F)c(-n2cc3cc(C4CC4)cnc3n2)c1)N1CC(F)C1` [Compound 15, N-(3-{5-cyclopropyl-2H-pyrazolo[3,4-b]pyridin-2-yl}-4-fluorophenyl)-3-fluoroazetidine-1-carboxamide], for which the EC50 was 17 nM in experiment [1] (setting [6]); 13 nM in experiment [2] (Leishmania donovani); 5 nM in experiment [3] (Trypanosoma cruzi, Fibroblast); less than 23 nM in experiment [4] (Trypanosoma brucei).

For the compound `O=C(Nc1ccc(F)c(-n2cc3cc(N4CC(F)(F)C4)cnc3n2)c1)[C@@H]1C[C@H]1F` (single isomer, unassigned) [Compound 271, (1 S,2R)—N-(3-(5-(3,3-difluoroazetidin-1-yl)-2H-pyrazolo[3,4-b]pyridin-2-yl)-4-fluorophenyl)-2-fluorocyclopropane-1-carboxamide or (1R,2S)—N-(3-(5-(3,3-difluoroazetidin-1-yl)-2H-pyrazolo[3,4-b]pyridin-2-yl)-4-fluorophenyl)-2-fluorocyclopropane-1-carboxamide], the EC50 in experiment [1] (setting [5]) was determined as 3 nM; in experiment [2], 120 nM; in experiment [3] it was 144 nM; in experiment [4], 388 nM.

As for `O=C(Nc1ccc(F)c(-n2cc3cc(CC(F)(F)F)cnc3n2)c1)N1CC[C@@H](F)C1` [Compound 162, (3R)-3-fluoro-N-{4-fluoro-3-[5-(2,2,2-trifluoroethyl)-2H-pyrazolo[3,4-b]pyridin-2-yl]phenyl}pyrrolidine-1-carboxamide], the EC50 in experiment [1] (setting [6]) was 4.5 nM; in experiment [2] (Leishmania donovani), 7 nM; in experiment [3] (Trypanosoma cruzi, Fibroblast), 1.8 nM; in experiment [4] (Trypanosoma brucei), less than 23 nM.

In the case of `CC(C)c1cnc2nn(-c3cc(NC(=O)C4CC4C)ccc3F)cc2c1` (centres unmarked) [Compound 211, N-{4-fluoro-3-[5-(propan-2-yl)-2H-pyrazolo[3,4-b]pyridin-2-yl]phenyl}-2-methylcyclopropane-1-carboxamide], the EC50 turned out to be 302 nM in experiment [1] (setting [6]); 496 nM in experiment [2] (Leishmania donovani); 72 nM in experiment [3] (Trypanosoma cruzi, Fibroblast); 35 nM in experiment [4] (Trypanosoma brucei).

For `CC(C)OC(=O)Nc1cnc2nn(-c3cc(NC(=O)c4ccco4)ccc3F)cc2c1` [Compound 123, propan-2-yl N-{2-[2-fluoro-5-(furan-2-amido)phenyl}-2H-pyrazolo[3,4-b]pyridin-5-yl}carbamate], the EC50 in experiment [1] (setting [6]) was 8.9 nM; in experiment [2] (Leishmania donovani), 9.4 nM; in experiment [3] (Trypanosoma cruzi, Fibroblast) it was 4.4 nM; in experiment [4] (Trypanosoma brucei), less than 23 nM.

Regarding `CNc1cnc2nn(-c3cc(NC(=O)c4oc(C)nc4C)ccc3F)cc2c1` [Compound 153, N-{4-fluoro-3-[5-(methylamino)-2H-pyrazolo[3,4-b]pyridin-2-yl]phenyl}-2,4-dimethyl-1,3-oxazole-5-carboxamide], the EC50 in experiment [1] (setting [6]) was determined as 27000 nM; in experiment [2] (Leishmania donovani), 210 nM; in experiment [3] (Trypanosoma cruzi, Fibroblast) it was 150 nM; in experiment [4] (Trypanosoma brucei), 500 nM.

On to `CCC(C)(C)c1cnc2nn(-c3cc(NC(=O)c4ccco4)ccc3F)cc2c1` [Compound 60, N-{4-fluoro-3-[5-(2-methylbutan-2-yl)-2H-pyrazolo[3,4-b]pyridin-2-yl]phenyl}furan-2-carboxamide], for which the EC50 was determined as 2400 nM in experiment [1] (setting [6]); 2000 nM in experiment [2] (Leishmania donovani); 440 nM in experiment [3] (Trypanosoma cruzi, Fibroblast); 1300 nM in experiment [4] (Trypanosoma brucei).

Take `O=C(Nc1ccc(F)c(-n2cc3cc(N4CC5(CC5)C4)cnc3n2)c1)N1CCC1` [Compound 257, N-(3-(5-(5-azaspiro[2.3]hexan-5-yl)-2H-pyrazolo[3,4-b]pyridin-2-yl)-4-fluorophenyl)azetidine-1-carboxamide]: the EC50 is 7 nM in experiment [1] (setting [6]); 14 nM in experiment [2] (Leishmania donovani); 2 nM in experiment [3] (Trypanosoma cruzi, Fibroblast); 4 nM in experiment [4] (Trypanosoma brucei).

For the compound `CCC(C)c1cnc2nn(-c3cc(NC(=O)c4oc(C)nc4C)ccc3F)cc2c1` (centres unmarked) [Compound 105, N-{3-[5-(butan-2-yl)-2H-pyrazolo[3,4-b]pyridin-2-yl]-4-fluorophenyl}-2,4-dimethyl-1,3-oxazole-5-carboxamide], the EC50 was determined as 890 nM in experiment [1] (setting [6]); 720 nM in experiment [2] (Leishmania donovani); 430 nM in experiment [3] (Trypanosoma cruzi, Fibroblast); 380 nM in experiment [4] (Trypanosoma brucei).

With `CN(C)C(=O)Nc1ccc(F)c(-n2cc3cc(N(C)C)cnc3n2)c1` [Compound 143, 1-{3-[5-(dimethylamino)-2H-pyrazolo[3,4-b]pyridin-2-yl]-4-fluorophenyl}-3,3-dimethylurea], the EC50 in experiment [1] (setting [6]) was 110 nM; in experiment [2] (Leishmania donovani), 150 nM; in experiment [4] (Trypanosoma brucei) it was less than 23 nM.

As to `O=C(Nc1ccc(F)c(-n2cc3cc(-c4ccccc4)cnc3n2)c1)N1CC(F)(F)C1` [Compound 353, 3,3-difluoro-N-(4-fluoro-3-(5-phenyl-2H-pyrazolo[3,4-b]pyridin-2-yl)phenyl)azetidine-1-carboxamide], the EC50 in experiment [1] (Leishmania donovani, Peritoneal macrophage) worked out at 4 nM; in experiment [2] (Leishmania donovani) it was 5 nM; in experiment [4] (Trypanosoma brucei) it was 13 nM.

Regarding `O=C(Nc1ccc(F)c(-n2cc3cc(N4CC5(CC5)C4)cnc3n2)c1)N1CCCC1` [Compound 337, N-[3-(5-{5-azaspiro[2.3]hexan-5-yl}-2H-pyrazolo[3,4-b]pyridin-2-yl)-4-fluorophenyl]pyrrolidine-1-carboxamide], the EC50 in experiment [1] (setting [6]) is 13 nM; in experiment [3] (Trypanosoma cruzi, Fibroblast) it was 4 nM; in experiment [4] (Trypanosoma brucei) it was 7 nM.

As for `CC(C)(C)c1cnc2nn(-c3cc(NC(=O)N4CC[C@@H](F)C4)ccc3F)cc2c1` [Compound 47, (3R)-N-(3-{5-tert-butyl-2H-pyrazolo[3,4-b]pyridin-2-yl}-4-fluorophenyl)-3-fluoropyrrolidine-1-carboxamide], the EC50 came out at 27 nM in experiment [1] (setting [6]); 23 nM in experiment [2] (Leishmania donovani); 2.8 nM in experiment [3] (Trypanosoma cruzi, Fibroblast).

Regarding `Cc1nc(C)c(C(=O)Nc2ccc(F)c(-n3cc4cc(-c5ccccc5)cnc4n3)c2)o1` [Compound 352, N-(4-fluoro-3-(5-phenyl-2H-pyrazolo[3,4-b]pyridin-2-yl)phenyl)-2,4-dimethyloxazole-5-carboxamide], the 50% effective concentration (EC50) in experiment [1] (setting [6]) worked out at 31 nM; in experiment [2] (Leishmania donovani), 17 nM; in experiment [4] (Trypanosoma brucei) it was 39 nM.

Consider `O=C(Nc1ccc(F)c(-n2cc3cc(C4CCCCC4)cnc3n2)c1)N1CC[C@@H](F)C1` [Compound 44, (3R)-N-(3-{5-cyclohexyl-2H-pyrazolo[3,4-b]pyridin-2-yl}-4-fluorophenyl)-3-fluoropyrrolidine-1-carboxamide], for which the EC50 turned out to be 32 nM in experiment [1] (setting [6]); 29 nM in experiment [2] (Leishmania donovani); 22 nM in experiment [3] (Trypanosoma cruzi, Fibroblast).

(Values after US11384078B2, “5,6-fused-bicyclic compounds and compositions for the treatment of parasitic diseases” (NOVARTIS AG, priority 2017, dated 2022).)
